Assay results from patent US11512090B2, “Muscarinic acetylcholine M1 receptor antagonists” (PIPELINE THERAPEUTICS, INC., priority 2018, dated 2022).
Where two headings read alike, the source gives them in different places.

Assays:
Format in all cases: cell-based
M2 = target: T1, M2 (Homo sapiens, UniProt P08172); experiment: In vitro functional assay of muscarinic acetylcholine receptor activity, M2
T1 sequence (P08172 1-466): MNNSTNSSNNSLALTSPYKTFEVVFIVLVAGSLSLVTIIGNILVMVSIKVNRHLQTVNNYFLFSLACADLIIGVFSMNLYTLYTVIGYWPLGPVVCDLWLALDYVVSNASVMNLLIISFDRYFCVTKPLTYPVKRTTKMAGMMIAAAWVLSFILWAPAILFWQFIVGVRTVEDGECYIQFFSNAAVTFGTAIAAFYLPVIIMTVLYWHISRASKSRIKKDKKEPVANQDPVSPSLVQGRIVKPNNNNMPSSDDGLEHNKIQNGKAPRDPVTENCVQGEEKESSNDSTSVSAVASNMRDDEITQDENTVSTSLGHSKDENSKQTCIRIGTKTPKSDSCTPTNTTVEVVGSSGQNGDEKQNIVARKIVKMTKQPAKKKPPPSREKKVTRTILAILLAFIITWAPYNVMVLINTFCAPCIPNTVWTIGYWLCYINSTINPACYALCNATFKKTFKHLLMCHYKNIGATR

M3 = M3 (Homo sapiens, UniProt P20309); experiment: In vitro functional assay of muscarinic acetylcholine receptor activity, M3; conditions: antagonist IC50 at M3; read-out: M3 IC50
M3, sequence (P20309 whole entry): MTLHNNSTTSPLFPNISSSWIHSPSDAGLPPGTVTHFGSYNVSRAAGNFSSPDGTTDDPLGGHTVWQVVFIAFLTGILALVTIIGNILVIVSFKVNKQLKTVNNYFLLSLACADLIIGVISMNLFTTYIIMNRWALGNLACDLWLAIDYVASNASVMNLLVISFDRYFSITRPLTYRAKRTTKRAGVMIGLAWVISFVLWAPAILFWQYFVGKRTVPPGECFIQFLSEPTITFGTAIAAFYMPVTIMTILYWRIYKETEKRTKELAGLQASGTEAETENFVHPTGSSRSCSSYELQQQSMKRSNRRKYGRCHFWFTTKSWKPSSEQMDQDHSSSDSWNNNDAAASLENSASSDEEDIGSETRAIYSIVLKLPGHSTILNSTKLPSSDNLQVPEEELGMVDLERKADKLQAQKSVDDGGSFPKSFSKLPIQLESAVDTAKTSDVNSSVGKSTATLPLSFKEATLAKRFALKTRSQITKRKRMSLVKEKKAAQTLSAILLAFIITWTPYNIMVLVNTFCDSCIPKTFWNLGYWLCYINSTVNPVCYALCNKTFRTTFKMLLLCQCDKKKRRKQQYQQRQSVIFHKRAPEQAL

human M1 receptor = target: T2, human M1 receptor (Homo sapiens, UniProt P11229); experiment: In vitro functional assay of muscarinic acetylcholine receptor activity (aequorin calcium flux, antagonist mode vs EC80 acetylcholine), M1
T2 sequence (P11229 1-460): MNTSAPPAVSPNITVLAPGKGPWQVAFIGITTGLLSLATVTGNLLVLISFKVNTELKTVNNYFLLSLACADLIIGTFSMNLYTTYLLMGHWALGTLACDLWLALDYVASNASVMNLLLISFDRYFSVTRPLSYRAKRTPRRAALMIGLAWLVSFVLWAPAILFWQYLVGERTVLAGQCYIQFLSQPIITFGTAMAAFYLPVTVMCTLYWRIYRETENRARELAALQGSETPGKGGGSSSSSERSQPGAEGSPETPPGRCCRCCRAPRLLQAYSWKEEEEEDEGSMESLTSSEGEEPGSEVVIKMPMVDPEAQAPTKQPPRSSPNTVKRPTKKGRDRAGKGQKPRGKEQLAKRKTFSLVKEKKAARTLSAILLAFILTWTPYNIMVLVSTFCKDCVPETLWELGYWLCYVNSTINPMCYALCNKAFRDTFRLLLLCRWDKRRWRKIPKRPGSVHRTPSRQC
How it was run: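 CHO-K1 cells stably co-expressing human M1 and aequorin were loaded with 5 uM coelenterazine h for 4 h at room temperature in the dark. IC50 came from the drop in luminescence.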

[1] = antagonist IC50 at M2, read-out: M2 IC50
[2] = CHO-K1 cells stably expressing human M1 receptor with Aequorin, decrease in EC80 acetylcholine response, read-out: M1 IC50

| Structure (SMILES) | IC50 (M2; [1]) | IC50 (M3) | IC50 (human M1 receptor; [2]) | IC50 (human M1 receptor) | IC50 (M2) |
| --- | --- | --- | --- | --- | --- |
| Cc1cncc(Cl)c1N1CCN(C(=O)CCS(=O)(=O)c2cccc3ncsc23)CC1 [Example 107, 3-(benzo[d]thiazol-7-ylsulfonyl)-1-(4-(3-chloro-5-methylpyridin-4-yl)piperazin-1-yl)propan-1-one] | > 10000 nM | 1000 to 10000 nM | 1000 to 10000 nM | – | – |
| O=C(CCS(=O)(=O)c1cccc2ncsc12)N1C[C@H]2CC[C@@H](C1)N2c1ccncc1F [Example 95, 3-(benzo[d]thiazol-7-ylsulfonyl)-1-((1R,5S)-8-(3-fluoropyridin-4-yl)-3,8-diazabicyclo[3.2.1]octan-3-yl)propan-1-one] | < 100 nM | 100 to 1000 nM | – | < 100 nM | – |
| CC1CN(c2ccncc2)CCN1C(=O)CCCc1cccc2ncccc12 (stereo not drawn) [Example 56, 1-(2-methyl-4-(pyridin-4-yl)piperazin-1-yl)-4-(quinolin-5-yl)butan-1-one] | 100 to 1000 nM | 1000 to 10000 nM | 100 to 1000 nM | – | – |
| O=C(C1CC1COc1cccc2ncsc12)N1C[C@H]2CC[C@@H](C1)N2c1ccncc1F (stereo partly drawn) [Example 9, (2-((benzo[d]thiazol-7-yloxy)methyl)-cyclopropyl)((1R,5S)-8-(3-fluoropyridin-4-yl)-3,8-diazabicyclo[3.2.1]octan-3-yl)methanone] | 1000 to 10000 nM | 1000 to 10000 nM | > 10000 nM | – | – |
| O=C(COCc1cccc2nccn12)N1C[C@H]2CC[C@@H](C1)N2c1ccncc1F [Example 75, 1-((1R,5S)-8-(3-fluoropyridin-4-yl)-3,8-diazabicyclo[3.2.1]octan-3-yl)-2-(imidazol[1,2-a]pyridin-5-ylmethoxy)ethan-1-one] | 1000 to 10000 nM | > 10000 nM | 1000 to 10000 nM | – | – |
| N#Cc1ccc(N2[C@@H]3CC[C@H]2CN(C(=O)COCc2cccc4nccnc24)C3)nc1 [Example 38, 6-((1R, 5S)-3-(2-(quinoxalin-5-ylmethoxy)acetyl)-3,8-diazabicyclo[3.2.1]octan-8-yl)nicotinonitrile] | 100 to 1000 nM | 1000 to 10000 nM | – | < 100 nM | – |
| O=C(CC1CN(c2cccc3ncccc23)C1)N1C[C@H]2CC[C@@H](C1)N2c1ccc(F)cn1 [Example 2, 1-((1R,5S)-8-(5-fluoropyridin-2-yl)-3,8-diazabicyclo[3.2.1]octan-3-yl)-2-(1-(quinolin-5-yl)azetidin-3-yl)ethan-1-one] | 1000 to 10000 nM | > 10000 nM | 1000 to 10000 nM | – | – |
| CC1CN(C(=O)CCCc2cccc3ncccc23)CCN1c1ccncc1 (stereo not drawn) [Example 60, 1-(3-methyl-4-(pyridin-4-yl)piperazin-1-yl)-4-(quinolin-5-yl)butan-1-one] | 100 to 1000 nM | 1000 to 10000 nM | < 100 nM | – | – |
| O=C(N1CC(Oc2cccc3cnccc23)C1)N1C[C@H]2CC[C@@H](C1)N2c1ccc(F)cn1 [Example 3, ((1R,5S)-8-(5-fluoropyridin-2-yl)-3,8-diazabicyclo[3.2.1]octan-3-yl)(3-(isoquinolin-5-yloxy)azetidin-1-yl)methanone] | – | 1000 to 10000 nM | > 10000 nM | – | 100 to 1000 nM |
| O=C(CCS(=O)(=O)c1cccc2ncsc12)N1CCN(c2ccc(Cl)cn2)CC1 [Example 110, 3-(benzo[d]thiazol-7-ylsulfonyl)-1-(4-(5-chloropyridin-2-yl)piperazin-1-yl)propan-1-one] | > 10000 nM | 1000 to 10000 nM | 100 to 1000 nM | – | – |
| N#Cc1ccc(N2CC3CCC2CN3C(=O)CCS(=O)(=O)c2cccc3ncsc23)nc1 (stereo not drawn) [Example 125, 6-{5-[3-(1,3-benzothiazole-7-sulfonyl)propanoyl]-2,5-diazabicyclo[2.2.2]octan-2-yl}pyridine-3-carbonitrile] | 100 to 1000 nM | 100 to 1000 nM | < 100 nM | – | – |
| O=C([C@H]1C[C@H](Oc2cccc3ncsc23)C1)N1CC2CCC(C1)N2c1ccc(F)cn1 [Example 63, ((1r,3R)-3-(benzo[d]thiazol-7-yloxy)cyclobutyl)((1R,5S)-8-(5-fluoropyridin-2-yl)-3,8-diazabicyclo[3.2.1]octan-3-yl)methanone] | – | > 10000 nM | 1000 to 10000 nM | – | 100 to 1000 nM |
| COc1cnc2cccc(S(=O)(=O)CCCC(=O)N3CCN(c4ncc(F)cc4C)C[C@@H]3C)c2c1 [Example 17, (S)-1-(4-(5-fluoro-3-methylpyridin-2-yl)-2-methylpiperazin-1-yl)-4-((3-methoxyquinolin-5-yl)sulfonyl)butan-1-one] | 100 to 1000 nM | 1000 to 10000 nM | 100 to 1000 nM | – | – |
| O=C(CCNCc1cccn2nccc12)N1CC2CCC(C1)N2c1ccc(Cl)cn1 [Example 163, 1-[8-(5-chloropyridin-2-yl)-3,8-diazabicyclo[3.2.1]octan-3-yl]-3-[({pyrazolo[1,5-a]pyridin-4-yl}methyl)amino]propan-1-one] | 1000 to 10000 nM | > 10000 nM | – | 100 to 1000 nM | – |
| N#Cc1ccc(N2C3CCC2CN(C(=O)C2CC(=Cc4cccc5ncccc45)C2)C3)nc1 (stereo not drawn) [Example 194, 6-(3-{3-[(quinolin-5-yl)methylidene]cyclobutanecarbonyl}-3,8-diazabicyclo[3.2.1]octan-8-yl)pyridine-3-carbonitrile] | – | 1000 to 10000 nM | – | < 100 nM | 100 to 1000 nM |
| N#Cc1ccc(N2C3CCC2CN(C(=O)CCN(Cc2cccc4ncnn24)C2COC2)C3)nc1 [Example 174, 6-(3-{3-[(oxetan-3-yl)({[1,2,4]triazolo[1,5-a]pyridin-5-yl}methyl)amino]propanoyl}-3,8-diazabicyclo[3.2.1]octan-8-yl)pyridine-3-carbonitrile] | > 10000 nM | > 10000 nM | – | 100 to 1000 nM | – |
| O=C(CCS(=O)(=O)c1cccc2ncsc12)N1CCC(c2ccc(C(F)(F)F)cn2)CC1 [Example 22, 3-(1,3-benzothiazole-7-sulfonyl)-1-[4-[5-(trifluoromethyl)pyridin-2-yl]piperidin-1-yl]propan-1-one] | 1000 to 10000 nM | 1000 to 10000 nM | 100 to 1000 nM | – | – |
| Cc1cc(F)cnc1N1CC(C)N(C(=O)CCS(=O)(=O)c2cccc3ncsc23)C(C)C1 (stereo not drawn) [Example 135, 3-(1,3-benzothiazole-7-sulfonyl)-1-[4-(5-fluoro-3-methylpyridin-2-yl)-2,6-dimethylpiperazin-1-yl]propan-1-one] | 100 to 1000 nM | 1000 to 10000 nM | < 100 nM | – | – |
| N#Cc1ccc(N2C3CCC2CN(C(=O)CCS(=O)(=O)c2cccc4ncsc24)C3)cn1 [Example 146, 5-{3-[3-(1,3-benzothiazole-7-sulfonyl)propanoyl]-3,8-diazabicyclo[3.2.1]octan-8-yl}pyridine-2-carbonitrile] | 100 to 1000 nM | 100 to 1000 nM | – | < 100 nM | – |
| N#Cc1ccc(N2C3CCC2CN(C(=O)COCCc2cccc4ncnn24)C3)nc1 [Example 183, 6-{3-[2-(2-{[1,2,4]triazolo[1,5-a]pyridin-5-yl}ethoxy)acetyl]-3,8-diazabicyclo[3.2.1]octan-8-yl}pyridine-3-carbonitrile] | > 10000 nM | 1000 to 10000 nM | – | < 100 nM | – |
| N#Cc1ccc(N2C3CCC2CN(C(=O)CCNCc2cccn4nccc24)C3)nc1 [Example 165, 6-(3-{3-[({pyrazolo[1,5-a]pyridin-4-yl}methyl)amino]propanoyl}-3,8-diazabicyclo[3.2.1]octan-8-yl)pyridine-3-carbonitrile] | 1000 to 10000 nM | 1000 to 10000 nM | – | 100 to 1000 nM | – |
